Several values for one entry are separate records, joined by “and”; a condition that tells them apart may be missing. Equal values may be shown once. Read-outs that look alike come from different tables or passages of the source.
Columns and labels:
[1] = tested on: D. discoideum growth upon R. planticola bacterial plates; experiment: Bacterial plate screen; type: cell-based, Dictyostelium discoideum; conditions: CBDA 12.3 μM, CBD 16.7 μM; 4 days
Procedure: Heat killed (75° C. for 30 minutes) R. planticola was spread onto the plates and ˜50 wild-type A×2 cells were added and left to grow at 22° C. Plates were checked regularly for colonies.

seizures [2] = conditions: 200 mg/day pure CBD, twelve institutionalized adult patients, open label; cited from earlier work
[3] = Toxicokinetics from toxicological studies in dogs, daily oral (gavage) administration; type: in vivo, dog; conditions: for Vd/F: read-out: Vz/F
Procedure: Samples were taken from the jugular vein into lithium heparin. Samples were mixed gently by hand then continuously for at least 2 minutes on automatic mixer and placed in a Kryorack until centrifugation, which was carried out at approximately 4° C. as soon as practicable. The resultant plasma was separated under low light conditions, transferred to uniquely labelled clear glass vials, placed in light proof boxes and frozen immediately at <−50° C.

[4] = tested on: D. discoideum development; experiment: D. discoideum development assay; type: cell-based, Dictyostelium discoideum; conditions: 20 μM, 24 h on nitrocellulose filter
Procedure: Wild type (A×2) D. discoideum cells were grown in HL5 shaking culture for two days prior to development assay. Cells were washed in phosphate buffer (KK2; 20 mM Potassium phosphate buffer, pH 6.1), and 1×10^7 cells were spread onto nitrocellulose filters (Millipore, Cork). Absorbent pads (Millipore, Cork), divided into quarters, were placed in 2 ml culture dishes and soaked with 0.5 ml KK2 containing the cannabinoids at 20 μM. 1 mM Valproic acid was used as a positive control while KK2 containing 1% DMSO was used as a solvent only control. Nitrocellulose filters containing cells were quartered and place upon absorbent pads and maintained in a humid environment at 22° C. for 24 h. Fruiting body morphology was recorded using a dissection microscope and camera.

seizures [5] = conditions: 200 mg/day pure CBD, four adult patients; cited from earlier work
[6] = CBD 100 mg/kg oral, Day 1, females, Max
[7] = CBD 100 mg/kg oral, Day 1, females, Min
[8] = CBD 100 mg/kg oral, Day 1, females, individual animals (Subjects 115-120)
[9] = CBD 100 mg/kg oral, Day 1, males, Max
[10] = CBD 100 mg/kg oral, Day 1, males, Min
[11] = CBD 100 mg/kg oral, Day 1, males, individual animals (Subjects 15-20)

SMILES: C=C(C)[C@@H]1CCC(C)=C[C@H]1c1c(O)cc(CCCCC)cc1O [CBD, Cannabidiol]
- cell survival (colony number) compared to control (solvent only) [1]: No difference in colony number
- control of seizures (seizures [2]): ineffective in controlling seizures
- tl/2 ([3]; CBD 100 mg/kg oral, Day 1, females, Geometric Mean): 5.9 h
- AUC0-inf [3, 6]: 32800 ng·h/mL
- AUC0-t [3, 6]: 32400 ng·h/mL
- CL/F [3, 6]: 632 mL/min/kg
- Cmax [3, 6]: 3780 ng/mL
- tl/2 [3, 6]: 8.4 h
- tmax [3, 6]: 8.0 h
- tl/2 ([3]; CBD 100 mg/kg oral, Day 1, females, Mean, N=4): 6.1 h
- tl/2 ([3]; CBD 100 mg/kg oral, Day 1, females, Median): 5.7 h
- AUC0-inf [3, 7]: 2640 ng·h/mL
- AUC0-t [3, 7]: 2540 ng·h/mL
- CL/F [3, 7]: 50.8 mL/min/kg
- Cmax [3, 7]: 411 ng/mL
- tl/2 [3, 7]: 4.5 h
- tmax [3, 7]: 1.0 h
- AUC0-inf [3, 8]: 32800 ng·h/mL and 3280 ng·h/mL and 22400 ng·h/mL and 2640 ng·h/mL
- AUC0-t [3, 8]: 31300 ng·h/mL and 3000 ng·h/mL and 20000 ng·h/mL and 22600 ng·h/mL and 2540 ng·h/mL and 32400 ng·h/mL
- CL/F [3, 8]: 50.8 mL/min/kg and 508 mL/min/kg and 74.5 mL/min/kg and 632 mL/min/kg
- Cmax [3, 8]: 3780 ng/mL and 655 ng/mL and 2520 ng/mL and 1900 ng/mL and 411 ng/mL and 3270 ng/mL
- tl/2 [3, 8]: 4.7 h and 8.4 h and 6.6 h and 4.5 h
- tmax [3, 8]: 2.0 h and 8.0 h and 1.0 h
- tl/2 ([3]; CBD 100 mg/kg oral, Day 1, males, Geometric Mean): 7.0 h
- AUC0-inf [3, 9]: 60500 ng·h/mL
- AUC0-t [3, 9]: 51800 ng·h/mL
- CL/F [3, 9]: 82.1 mL/min/kg
- Cmax [3, 9]: 4570 ng/mL
- tl/2 [3, 9]: 8.6 h
- tmax [3, 9]: 8.0 h
- tl/2 ([3]; CBD 100 mg/kg oral, Day 1, males, Mean, N=5): 7.2 h
- tl/2 ([3]; CBD 100 mg/kg oral, Day 1, males, Median): 7.7 h
- AUC0-inf [3, 10]: 20300 ng·h/mL
- AUC0-t [3, 10]: 17200 ng·h/mL
- CL/F [3, 10]: 27.5 mL/min/kg
- Cmax [3, 10]: 1400 ng/mL
- tl/2 [3, 10]: 5.4 h
- AUC0-inf [3, 11]: 55300 ng·h/mL and 60500 ng·h/mL and 20300 ng·h/mL and 31100 ng·h/mL
- AUC0-t [3, 11]: 47300 ng·h/mL and 51800 ng·h/mL and 33000 ng·h/mL and 17200 ng·h/mL and 28700 ng·h/mL and 26400 ng·h/mL
- CL/F [3, 11]: 30.1 mL/min/kg and 27.5 mL/min/kg and 82.1 mL/min/kg and 53.6 mL/min/kg
- Cmax [3, 11]: 3960 ng/mL and 4570 ng/mL and 3620 ng/mL and 1400 ng/mL and 2430 ng/mL and 3090 ng/mL
- tl/2 [3, 11]: 8.6 h and 7.7 h and 5.4 h and 8.5 h and 5.7 h
- tmax [3, 11]: 8.0 h
- AUC0-inf ([3]; female, dog, plasma, po, 100 mg/kg, CBD 100 mg/kg oral, Day 1, females, Geometric Mean, read-out: AUC0-inf): 8930 ng·h/mL
- AUC0-t ([3]; female, dog, plasma, po, 100 mg/kg, CBD 100 mg/kg oral, Day 1, females, Geometric Mean, read-out: AUC0-t): 12300 ng·h/mL
- CL/F ([3]; female, dog, plasma, po, 100 mg/kg, CBD 100 mg/kg oral, Day 1, females, Geometric Mean, read-out: CL/F): 187 mL/min/kg
- Cmax ([3]; female, dog, plasma, po, 100 mg/kg, CBD 100 mg/kg oral, Day 1, females, Geometric Mean, read-out: Cmax): 1590 ng/mL
- Vd/F ([3]; female, dog, plasma, po, 100 mg/kg, CBD 100 mg/kg oral, Day 1, females, Geometric Mean): 94.8 L/kg
- AUC0-inf ([3]; female, dog, plasma, po, 100 mg/kg, CBD 100 mg/kg oral, Day 1, females, Mean, N=4, read-out: AUC0-inf): 15300 ng·h/mL
- CL/F ([3]; female, dog, plasma, po, 100 mg/kg, CBD 100 mg/kg oral, Day 1, females, Mean, N=4, read-out: CL/F): 316 mL/min/kg
- Vd/F ([3]; female, dog, plasma, po, 100 mg/kg, CBD 100 mg/kg oral, Day 1, females, Mean, N=4): 169 L/kg
- AUC0-t ([3]; female, dog, plasma, po, 100 mg/kg, CBD 100 mg/kg oral, Day 1, females, Mean, N=6, read-out: AUC0-t): 18600 ng·h/mL
- Cmax ([3]; female, dog, plasma, po, 100 mg/kg, CBD 100 mg/kg oral, Day 1, females, Mean, N=6, read-out: Cmax): 2090 ng/mL
- AUC0-inf ([3]; female, dog, plasma, po, 100 mg/kg, CBD 100 mg/kg oral, Day 1, females, Median, read-out: AUC0-inf): 12800 ng·h/mL
- AUC0-t ([3]; female, dog, plasma, po, 100 mg/kg, CBD 100 mg/kg oral, Day 1, females, Median, read-out: AUC0-t): 21300 ng·h/mL
- CL/F ([3]; female, dog, plasma, po, 100 mg/kg, CBD 100 mg/kg oral, Day 1, females, Median, read-out: CL/F): 291 mL/min/kg
- Cmax ([3]; female, dog, plasma, po, 100 mg/kg, CBD 100 mg/kg oral, Day 1, females, Median, read-out: Cmax): 2210 ng/mL
- Vd/F ([3]; female, dog, plasma, po, 100 mg/kg, CBD 100 mg/kg oral, Day 1, females, Median): 145 L/kg
- tmax ([3]; female, dog, plasma, po, 100 mg/kg, CBD 100 mg/kg oral, Day 1, females, Median, read-out: tmax): 4 h
- AUC0-t ([3]; female, dog, plasma, po, 100 mg/kg, comparative Table 11, females, 100 mg/kg, Day 1, mean, read-out: AUC0-t): 18600 ng·h/mL
- Cmax ([3]; female, dog, plasma, po, 100 mg/kg, comparative Table 11, females, 100 mg/kg, Day 1, mean, read-out: Cmax): 2090 ng/mL
- AUC0-inf ([3]; male, dog, plasma, po, 100 mg/kg, CBD 100 mg/kg oral, Day 1, males, Geometric Mean, read-out: AUC0-inf): 37600 ng·h/mL
- AUC0-t ([3]; male, dog, plasma, po, 100 mg/kg, CBD 100 mg/kg oral, Day 1, males, Geometric Mean, read-out: AUC0-t): 31900 ng·h/mL
- CL/F ([3]; male, dog, plasma, po, 100 mg/kg, CBD 100 mg/kg oral, Day 1, males, Geometric Mean, read-out: CL/F): 44.4 mL/min/kg
- Cmax ([3]; male, dog, plasma, po, 100 mg/kg, CBD 100 mg/kg oral, Day 1, males, Geometric Mean, read-out: Cmax): 2970 ng/mL
- Vd/F ([3]; male, dog, plasma, po, 100 mg/kg, CBD 100 mg/kg oral, Day 1, males, Geometric Mean): 27 L/kg
- AUC0-inf ([3]; male, dog, plasma, po, 100 mg/kg, CBD 100 mg/kg oral, Day 1, males, Mean, N=5, read-out: AUC0-inf): 40500 ng·h/mL
- CL/F ([3]; male, dog, plasma, po, 100 mg/kg, CBD 100 mg/kg oral, Day 1, males, Mean, N=5, read-out: CL/F): 48.1 mL/min/kg
- Vd/F ([3]; male, dog, plasma, po, 100 mg/kg, CBD 100 mg/kg oral, Day 1, males, Mean, N=5): 29.9 L/kg
- AUC0-t ([3]; male, dog, plasma, po, 100 mg/kg, CBD 100 mg/kg oral, Day 1, males, Mean, N=6, read-out: AUC0-t): 34100 ng·h/mL
- Cmax ([3]; male, dog, plasma, po, 100 mg/kg, CBD 100 mg/kg oral, Day 1, males, Mean, N=6, read-out: Cmax): 3180 ng/mL
- AUC0-inf ([3]; male, dog, plasma, po, 100 mg/kg, CBD 100 mg/kg oral, Day 1, males, Median, read-out: AUC0-inf): 35400 ng·h/mL
- AUC0-t ([3]; male, dog, plasma, po, 100 mg/kg, CBD 100 mg/kg oral, Day 1, males, Median, read-out: AUC0-t): 30800 ng·h/mL
- CL/F ([3]; male, dog, plasma, po, 100 mg/kg, CBD 100 mg/kg oral, Day 1, males, Median, read-out: CL/F): 47.1 mL/min/kg
- Cmax ([3]; male, dog, plasma, po, 100 mg/kg, CBD 100 mg/kg oral, Day 1, males, Median, read-out: Cmax): 3360 ng/mL
- Vd/F ([3]; male, dog, plasma, po, 100 mg/kg, CBD 100 mg/kg oral, Day 1, males, Median): 22.3 L/kg
- tmax ([3]; male, dog, plasma, po, 100 mg/kg, CBD 100 mg/kg oral, Day 1, males, Median, read-out: tmax): 6 h
- tmax ([3]; male, dog, plasma, po, 100 mg/kg, CBD 100 mg/kg oral, Day 1, males, individual animals (Subjects 15-20), read-out: tmax): 6 h
- AUC0-t ([3]; male, dog, plasma, po, 100 mg/kg, comparative Table 10, males, 100 mg/kg, Day 1, mean, read-out: AUC0-t): 34100 ng·h/mL
- Cmax ([3]; male, dog, plasma, po, 100 mg/kg, comparative Table 10, males, 100 mg/kg, Day 1, mean, read-out: Cmax): 3180 ng/mL
- effect on development (fruiting body morphology) [4]: able to aggregate and develop to form mature fruiting bodies
- seizure freedom (seizures [5]): two of the four patients became seizure free
